Consider 23 compounds from PubChem BioAssay AID248 (DTP/NCI, 2004).

In the experiment the test system is L1210 leukemia ip in BDF1 mice, survival T/C. Put plainly: NCI In Vivo Anticancer Drug Screen. Data for tumor model L1210 Leukemia (intraperitoneal) in B6D2F1 (BDF1) mice. Conditions: endpoint: mean survival time, higher = longer survival. In short, it runs like this:
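Read-out is survival time, reported as the treated-group measurement over the vehicle-control measurement.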

[1] abbreviates: dose: 100.0 mg/kg/injection, schedule: Q01DX009 (ip), vehicle: saline.
The mark [2] stands for this setting: dose: 200.0 mg/kg/injection, schedule: Q01DX009 (ip), vehicle: saline.
[3] abbreviates: dose: 200.0 mg/kg/injection, schedule: Q01DX001 (ip), vehicle: other.
Where [4] appears, read: dose: 200.0 mg/kg/injection, schedule: Q01DX001 (ip), vehicle: saline.
[5] abbreviates: dose: 400.0 mg/kg/injection, schedule: Q01DX001 (ip), vehicle: saline.
The mark [6] stands for this setting: dose: 100.0 mg/kg/injection, schedule: Q04DX003 (ip), vehicle: saline with Tween-80.
The mark [7] stands for this setting: dose: 200.0 mg/kg/injection, schedule: Q04DX003 (ip), vehicle: saline with Tween-80.
[8] abbreviates: dose: 100.0 mg/kg/injection, schedule: Q01DX009 (ip), vehicle: saline with Tween-80.
The mark [9] stands for this setting: dose: 200.0 mg/kg/injection, schedule: Q01DX009 (ip), vehicle: saline with Tween-80.
Where [10] appears, read: dose: 100.0 mg/kg/injection, schedule: Q01DX001 (ip), vehicle: saline.
The mark [11] stands for this setting: dose: 400.0 mg/kg/injection, schedule: Q04DX003 (ip), vehicle: saline with Tween-80.

Where “and” joins values, the source holds several entries; their conditions need not be identical. Identical values can stand only once. Toxic doses and inconclusive results are not listed.

`O=[N+]([O-])c1ccc(N=Cc2ccccc2O)cc1`: the T/C was 98 % of control (dose: 50.0 mg/kg/injection, schedule: Q01DX001 (sc), vehicle: olive oil, sesame oil, peanut oil); 98 % of control (dose: 100.0 mg/kg/injection, schedule: Q01DX001 (sc), vehicle: olive oil, sesame oil, peanut oil); 98 % of control (dose: 200.0 mg/kg/injection, schedule: Q01DX001 (sc), vehicle: olive oil, sesame oil, peanut oil); 108 % of control (dose: 400.0 mg/kg/injection, schedule: Q01DX001 (sc), vehicle: olive oil, sesame oil, peanut oil).
For `CC1=NN(c2ccc(S(=O)(=O)O)cc2)C(=O)/C1=C\c1c(C)[nH]n(-c2ccc(S(=O)(=O)O)cc2)c1=O`, the T/C is 97 % of control under setting [1]; 91 % of control (dose: 100.0 mg/kg/injection, schedule: Q04DX003 (ip), vehicle: saline); 106 % of control under setting [2]; 95 % of control (dose: 200.0 mg/kg/injection, schedule: Q04DX003 (ip), vehicle: saline); 92 % of control (dose: 400.0 mg/kg/injection, schedule: Q01DX009 (ip), vehicle: saline); 91 % of control (dose: 400.0 mg/kg/injection, schedule: Q04DX003 (ip), vehicle: saline).
For `C[CH2][Ge]([CH2]C)[CH2]C.C[CH2][Ge]([CH2]C)[CH2]C.C[CH2][Ge][CH2]C`, the T/C reads like this: (dose: 100.0 mg/kg/injection, schedule: Q04DX002 (ip), vehicle: saline with Tween-80) 103 % of control; (dose: 200.0 mg/kg/injection, schedule: Q04DX002 (ip), vehicle: saline with Tween-80) 95 % of control; (dose: 400.0 mg/kg/injection, schedule: Q04DX002 (ip), vehicle: saline with Tween-80) 319 % of control.
With `N#CC(C#N)=Cc1ccc(Cl)cc1`, the T/C was 105 % of control (dose: 50.0 mg/kg/injection, schedule: Q01DX001 (ip), vehicle: other); 102 % of control (dose: 100.0 mg/kg/injection, schedule: Q01DX001 (ip), vehicle: other); 113 % of control under setting [3].
On to `O=c1c(O)c(-c2ccc(O)c(O)c2)oc2cc(O)cc(O)c12`, for which the T/C was 115 % of control (dose: 25.0 mg/kg/injection, schedule: Q01DX009 (ip), vehicle: saline); 105 % of control (dose: 50.0 mg/kg/injection, schedule: Q01DX009 (ip), vehicle: saline); 103 % of control under setting [1]; 104 % of control and 120 % of control under setting [2].
As for `Oc1ccc(Br)cc1/C=N/NC(=S)Nc1cccc2cccnc12`, the T/C under setting [4] is 94 % of control and the T/C under setting [5] was 96 % of control.
As to `CC1=CC(=O)C(C)(C(Cl)Cl)C=C1` (stereo not given), the T/C under setting [6] is 95 % of control and the T/C under setting [7] was 97 % of control.
Consider `Clc1ccc(SCC#CCOc2ccc(Cl)cc2Cl)cc1`, for which the T/C is, setting by setting: (dose: 100.0 mg/kg/injection, schedule: Q01DX001 (ip), vehicle: Klucel (hydroxypropylcellulose) (HPC)) 89 % of control; (dose: 200.0 mg/kg/injection, schedule: Q01DX001 (ip), vehicle: Klucel (hydroxypropylcellulose) (HPC)) 95 % of control; (dose: 400.0 mg/kg/injection, schedule: Q01DX001 (ip), vehicle: Klucel (hydroxypropylcellulose) (HPC)) 97 % of control.
Consider `NCCCC(=S)S`, for which the T/C was 95 % of control (dose: 100.0 mg/kg/injection, schedule: Q04DX002 (ip), vehicle: saline); 96 % of control and 103 % of control (dose: 200.0 mg/kg/injection, schedule: Q04DX002 (ip), vehicle: saline); 96 % of control and 116 % of control (dose: 400.0 mg/kg/injection, schedule: Q04DX002 (ip), vehicle: saline).
Turning to `O=C1C=C(c2ccccc2)C(c2ccccc2)C1=O` (stereo not given), the T/C is, setting by setting: (dose: 50.0 mg/kg/injection, schedule: Q04DX002 (ip), vehicle: Klucel (hydroxypropylcellulose) (HPC)) 106 % of control; (dose: 100.0 mg/kg/injection, schedule: Q04DX002 (ip), vehicle: Klucel (hydroxypropylcellulose) (HPC)) 98 % of control; (dose: 200.0 mg/kg/injection, schedule: Q04DX002 (ip), vehicle: Klucel (hydroxypropylcellulose) (HPC)) 95 % of control and 111 % of control; (dose: 400.0 mg/kg/injection, schedule: Q04DX002 (ip), vehicle: Klucel (hydroxypropylcellulose) (HPC)) 93 % of control.
On to `CCN(CC)C(C)(C)COC(=O)c1ccc([N+](=O)[O-])cc1`, for which the T/C runs as follows: (dose: 222.0 mg/kg/injection, schedule: Q01DX Z (ip), vehicle: methylcellulose (MC)) 121 % of control; (dose: 333.0 mg/kg/injection, schedule: Q01DX Z (ip), vehicle: methylcellulose (MC)) 101 % of control; (dose: 500.0 mg/kg/injection, schedule: Q01DX Z (ip), vehicle: methylcellulose (MC)) 96 % of control.
Consider `NC(=S)N/N=C/C=N/NC(N)=S`, for which the T/C is 97 % of control (dose: 50.0 mg/kg/injection, schedule: Q01DX001 (ip), vehicle: carboxymethylcellulose (CMC)); 91 % of control (dose: 100.0 mg/kg/injection, schedule: Q01DX001 (ip), vehicle: carboxymethylcellulose (CMC)); 95 % of control (dose: 200.0 mg/kg/injection, schedule: Q01DX001 (ip), vehicle: carboxymethylcellulose (CMC)); 101 % of control (dose: 400.0 mg/kg/injection, schedule: Q01DX001 (ip), vehicle: carboxymethylcellulose (CMC)); 107 % of control (dose: 1.0 micrograms/kg/injection, schedule: Q01DX009 (ip), vehicle: carboxymethylcellulose (CMC)); 98 % of control (dose: 5.0 micrograms/kg/injection, schedule: Q01DX009 (ip), vehicle: carboxymethylcellulose (CMC)).
As for `CC12CCCCC1=CC(O)CC2` (stereo not given), the T/C is 98 % of control (dose: 50.0 mg/kg/injection, schedule: Q01DX009 (ip), vehicle: saline with Tween-80); 91 % of control under setting [8]; 94 % of control under setting [9].
`CCOc1cccc(NNc2ccccc2OCC)c1`: the T/C runs as follows: (dose: 44.0 mg/kg/injection, schedule: Q01DX001 (ip), vehicle: other) 106 % of control; (dose: 66.0 mg/kg/injection, schedule: Q01DX001 (ip), vehicle: other) 95 % of control; (dose: 150.0 mg/kg/injection, schedule: Q01DX001 (ip), vehicle: other) 92 % of control; under setting [3], 97 % of control; (dose: 400.0 mg/kg/injection, schedule: Q01DX001 (ip), vehicle: other) 97 % of control.
`CC1(c2ccsc2)NC(=O)NC1=O` (stereo not given): the T/C is 93 % of control under setting [10], 93 % of control under setting [4] and 90 % of control under setting [5].
Turning to `NC(=O)C1NC(=O)NC1=O` (stereo not given), the T/C was 88 % of control under setting [8]; 93 % of control under setting [9]; 97 % of control (dose: 400.0 mg/kg/injection, schedule: Q01DX009 (ip), vehicle: saline with Tween-80).
In the case of `CCCNC(=O)c1ccc(N)cc1`, the T/C was 104 % of control under setting [10], 97 % of control under setting [4] and 97 % of control under setting [5].
`O=C(O)C1C(Cl)C(Cl)C1C(=O)O` (stereo not given): the T/C was 104 % of control (dose: 75.0 mg/kg/injection, schedule: Q01DX001 (ip), vehicle: saline); 101 % of control (dose: 150.0 mg/kg/injection, schedule: Q01DX001 (ip), vehicle: saline); 96 % of control (dose: 300.0 mg/kg/injection, schedule: Q01DX001 (ip), vehicle: saline).
Consider `CC1(C)S[C@@H]2[C@H](NC(=O)Cc3ccc([N+](=O)[O-])cc3)CN2[C@H]1N=C=O`, for which the T/C by setting is: under setting [10], 93 % of control; under setting [4], 91 % of control; under setting [5], 98 % of control.
Turning to `CCOC(=O)c1cc2sccc2[nH]1`, the T/C is 100 % of control under setting [6], 100 % of control under setting [7] and 93 % of control under setting [11].
With `CN(C)/N=N/c1nc[nH]c1C#N`, the T/C reads like this: under setting [8], 107 % of control; under setting [6], 110 % of control; under setting [9], 115 % of control; under setting [7], 98 % of control; under setting [11], 102 % of control.
For `NC(N)=NNO`, the T/C reads like this: under setting [10], 88 % of control; under setting [4], 95 % of control; under setting [5], 101 % of control.
For the compound `O=C(Nc1ccc(C(=O)c2ccccc2)cc1)c1ccccc1`, the T/C is, setting by setting: (dose: 100.0 mg/kg/injection, schedule: Q04DX003 (ip), vehicle: Klucel (hydroxypropylcellulose) (HPC)) 104 % of control; (dose: 200.0 mg/kg/injection, schedule: Q04DX003 (ip), vehicle: Klucel (hydroxypropylcellulose) (HPC)) 108 % of control; (dose: 400.0 mg/kg/injection, schedule: Q04DX003 (ip), vehicle: Klucel (hydroxypropylcellulose) (HPC)) 98 % of control.
